Measurements reported in patent publication US7745455B2 (priority 2005, dated 2010).
Values joined by “and” are separate entries in the source; they are usually repeats but may differ in a detail not shown here. Identical values can stand only once.

Experiments:
3TC-TP formation = settings: in vitro; cited from earlier work
HIV [1] = type: in vivo; settings: individual patients by date; 3TC lines = before ddC was started
CD4+ = CD4+ count in treated patients (immunological data); type: in vivo, human; settings: individual patients by date; 3TC lines = before ddC was started
HIV [2] = settings: 300 mg instead of 150 mg; cited from earlier work
[3] = human, in vivo; cited from earlier work
ddC phosphorylation = settings: in vitro, identical concentration ratios of 10 to 100 μM; cited from earlier work
[4] = Plasmatic 3TC levels in patients with or without ddC-boosted 3TC treatment; type: in vivo, human; settings: individual HIV patients, one line per patient and date, 3TC with low dose ddC or without ddC
Description: It should be noted that for the plasma levels, the peak (post-dose) was at about 2 hours of the drug administration: this is not the case with intracellular triphosphate concentrations where the peaks might occur later than 2 hours post drug administration.

[5] = human, in vivo; cited from earlier work; remark: listed apart in the source
3TC phosphorylation = settings: in vitro, at extremely high ddC concentrations (10 to 100 higher than those of 3TC); cited from earlier work
HIV [6] = settings: cited from earlier work

Row | SMILES | extracellular concentration at which 3TC-TP formation is saturated (3TC-TP formation) [µM] | Viral load (HIV [1]) | CD4+ (CD4+) | effect of increased dose on 3TC-TP levels (HIV [2]) | 3TC-TP levels reported in the literature [3] | inhibition of ddC phosphorylation (ddC phosphorylation) | concentration at 2 h ([4]; human, in vivo, 3TC plasma levels 2 h post dose) [ng/mL] | 3TC plasma levels 2 h post dose [4] | 3TC plasma levels Pre-dose [4] | plasma levels [5] [nM] | inhibition of 3TC phosphorylation (3TC phosphorylation) | concentration needed for antiretroviral activity (in vivo toxicity index) (HIV [6]) [µM] | toxic concentration (in vivo toxicity index) (HIV [6]) [µM]
1 | Nc1ccn([C@@H]2CS[C@H](CO)O2)c(=O)n1 [3TC, 2′ deoxy-3′-thiacytidine] | 10 | 291 392 ^ and 1 344 ^ and 124 and 445 | 180 and 760 and 220 and 770 | did not significantly increased the 3TC-TP levels | 1-5 μmol/10^6 PBMC | inhibited ddC phosphorylation in a concentration-dependent manner | 700 | 779 ng/ml and 1 057 ng/ml | 143 ng/ml and 35 ng/ml (2×) | – | – | – | –
2 | Nc1ccn([C@H]2CC[C@@H](CO)O2)c(=O)n1 [ddC, 2′-3′-dideoxycytidine] | – | – | – | – | – | – | – | – | – | 500 to 1500 | did inhibit in vitro 3TC phosphorylation | 0.1 | 0.2
